Source: patent US9708314B2, “Heterocyclic amide compound” (NISSAN CHEMICAL INDUSTRIES, LTD., priority 2013, dated 2017)

How the values were obtained:
Type in all cases: in vivo
Abutilon theophrasti = experiment: Test Example 4: herbicidal effect by application to foliage (diluvial soil, plastic box); conditions: application to foliage, application herbicide amount 320 g/ha
Method in brief: (§1)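 Plants were grown in sterilized diluvial soil in a greenhouse at 25-30° C for 14 days, then sprayed on stems and leaves with water-diluted emulsion formulation at set rates in g/ha. Weed control and crop injury were scored 3 weeks after treatment on a 0-5 herbicidal-ratio scale, from 0 (≤5%) to 5 (≥90%).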

Setaria viridis = experiment: as above; conditions: application to foliage, application herbicide amount 320 g/ha
Method in brief: as §1

Veronica persica = experiment: as above; conditions: application to foliage, application herbicide amount 320 g/ha
Method in brief: as §1

Apera spica-venti. = experiment: as above; conditions: application to foliage, application herbicide amount 320 g/ha
Method in brief: as §1

Digitaria ciliaris = experiment: as above; conditions: application to foliage, application herbicide amount 320 g/ha
Method in brief: as §1

Avena fatua = experiment: as above; conditions: application to foliage, application herbicide amount 320 g/ha
Method in brief: as §1

Alopecurus myosuroides = experiment: as above; conditions: application to foliage, application herbicide amount 320 g/ha
Method in brief: as §1

[1] = system: Echinochloa crus-galli var. crus-galli; experiment: as above; conditions: application to foliage, application herbicide amount 320 g/ha
Method in brief: as §1

Chenopodium album = experiment: as above; conditions: application to foliage, application herbicide amount 320 g/ha
Method in brief: as §1

Galium spurium = experiment: as above; conditions: application to foliage, application herbicide amount 320 g/ha
Method in brief: as §1

Lolium multiflorum Lam. = experiment: as above; conditions: application to foliage, application herbicide amount 320 g/ha
Method in brief: as §1

Scirpus juncoides = experiment: Test Example 2: herbicidal activity, application during weed generation in submerged conditions; conditions: Eighteenth Table; application herbicide amount 320 g/ha
Text: (§2) 5 Herbicidal ratio of 90% or more (almost completely withered) 4 Herbicidal ratio of 70% or more and less than 90% 3 Herbicidal ratio of 40% or more and less than 70% 2 Herbicidal ratio of 20% or more and less than 40% 1 Herbicidal ratio of 5% or more and less than 20% 0 Herbicidal ratio of 5% or less (almost no effect) [Test Example 2] Herbicidal Activity Test by Application During Weed Generation in Submerged Conditions After alluvial soil was placed into 1/10000 are of Wagner pot, water was poured and mixed to form a submerged condition having a water depth of 4 cm. Seeds of Echinochloa oryzacola Vasing., Scirpus juncoides, and Monochoria vaginalis were sowed in a mixed manner in the above pot and the pot was placed in the greenhouse of 25° C. to 30° C. to grow the plants. When Echinochloa oryzacola Vasing., Scirpus juncoides, and Monochoria vaginalis were grown to one leaf stage to two leaf stage, the emulsion agent containing the compound of the present invention prepared in accordance with Formulation Example 2 was diluted with water so as to be a predetermined herbicide amount and the diluted compound was applied to the surface of the water. Three weeks after the herbicide application, effects on each plant were investigated in accordance with the criteria of Test Example 1. A: Echinochloa oryzicola Vasing., B: Scirpus juncoides, C: Monochoria vaginalis, D: Leptochloa chinensis, E: Cyperus difformis, F: Digitaria ciliaris, G: Setaria viridis, H: Echinochloa crus-galli var. crus-galli, I: Avena fatua, J: Alopecurus myosuroides, K: Lolium multiflorum Lam., L: Apera spica-venti., M: Abutilon theophrasti, N: Amaranthus retroflexus, O: Chenopodium album, P: Stellaria media, Q: Galium spurium, R: Veronica persica, a: transplanted Oryza sativa, b: directly sowed Oryza sativa, c: Zea mays, d: Glycine max, e: Triticum aestivum, f: Beta vulgaris ssp. vulgaris, and g: Brassica campestris L. The application herbicide amount (g/ha) means an amount that a concentration is adjusted so that, when an application amount is converted into per hectare (1 ha), the herbicide is applied by the number of grams (g) of the described value.

[2] = system: Echinochloa oryzacola Vasing.; experiment: as above; conditions: Eighteenth Table; application herbicide amount 320 g/ha
Text: as §2

[3] = system: directly sowed Oryza sativa; experiment: Test Example 4: effect on crop by application to foliage (diluvial soil, plastic box); conditions: application to foliage, application herbicide amount 320 g/ha
Method in brief: as §1

[4] = system: Beta vulgaris ssp. vulgaris; experiment: as above; conditions: application to foliage, application herbicide amount 320 g/ha
Method in brief: as §1

Glycine max = experiment: as above; conditions: application to foliage, application herbicide amount 320 g/ha
Method in brief: as §1

Zea mays = experiment: as above; conditions: application to foliage, application herbicide amount 320 g/ha
Method in brief: as §1

Triticum aestivum = experiment: as above; conditions: application to foliage, application herbicide amount 320 g/ha
Method in brief: as §1

Brassica campestris L. = experiment: as above; conditions: application to foliage, application herbicide amount 320 g/ha
Method in brief: as §1

Structure (SMILES) | M (Abutilon theophrasti) herbicidal effect (Abutilon theophrasti) | G (Setaria viridis) herbicidal effect (Setaria viridis) | R (Veronica persica) herbicidal effect (Veronica persica) | L (Apera spica-venti.) herbicidal effect (Apera spica-venti.) | F (Digitaria ciliaris) herbicidal effect (Digitaria ciliaris) | I (Avena fatua) herbicidal effect (Avena fatua) | J (Alopecurus myosuroides) herbicidal effect (Alopecurus myosuroides) | H (Echinochloa crus-galli var. crus-galli) herbicidal effect [1] | O (Chenopodium album) herbicidal effect (Chenopodium album) | Q (Galium spurium) herbicidal effect (Galium spurium) | K (Lolium multiflorum Lam.) herbicidal effect (Lolium multiflorum Lam.) | B (Scirpus juncoides) herbicidal ratio grade (Scirpus juncoides) | A (Echinochloa oryzicola Vasing.) herbicidal ratio grade [2] | d (directly sowed Oryza sativa) effect on crop [3] | f (Beta vulgaris ssp. vulgaris) effect on crop [4] | c (Glycine max) effect on crop (Glycine max) | b (Zea mays) effect on crop (Zea mays) | e (Triticum aestivum) effect on crop (Triticum aestivum) | g (Brassica campestris L.) effect on crop (Brassica campestris L.)
Cc1nnc(NC(=O)c2ccc(C(F)(F)F)n3c(S(C)(=O)=O)nnc23)o1 [1-040] | 5 (Herbicidal ratio of 90% or more (almost completely withered)) | 4 (Herbicidal ratio of 70% or more and less than 90%) | 5 (Herbicidal ratio of 90% or more (almost completely withered)) | 4 (Herbicidal ratio of 70% or more and less than 90%) | 5 (Herbicidal ratio of 90% or more (almost completely withered)) | 3 (Herbicidal ratio of 40% or more and less than 70%) | 3 (Herbicidal ratio of 40% or more and less than 70%) | 4 (Herbicidal ratio of 70% or more and less than 90%) | 5 (Herbicidal ratio of 90% or more (almost completely withered)) | 3 (Herbicidal ratio of 40% or more and less than 70%) | 3 (Herbicidal ratio of 40% or more and less than 70%) | 2 (Herbicidal ratio of 20% or more and less than 40%) | 3 (Herbicidal ratio of 40% or more and less than 70%) | 1 (Herbicidal ratio of 5% or more and less than 20%) | 5 (Herbicidal ratio of 90% or more (almost completely withered)) | 0 (Herbicidal ratio of 5% or less (almost no effect)) | 0 (Herbicidal ratio of 5% or less (almost no effect)) | 3 (Herbicidal ratio of 40% or more and less than 70%) | 1 (Herbicidal ratio of 5% or more and less than 20%)
Cc1nnc(NC(=O)c2ccc(C(F)(F)F)n3c(CS(C)(=O)=O)nnc23)o1 [1-037] | 5 (Herbicidal ratio of 90% or more (almost completely withered)) | 4 (Herbicidal ratio of 70% or more and less than 90%) | 5 (Herbicidal ratio of 90% or more (almost completely withered)) | 3 (Herbicidal ratio of 40% or more and less than 70%) | 5 (Herbicidal ratio of 90% or more (almost completely withered)) | 3 (Herbicidal ratio of 40% or more and less than 70%) | 2 (Herbicidal ratio of 20% or more and less than 40%) | 4 (Herbicidal ratio of 70% or more and less than 90%) | 5 (Herbicidal ratio of 90% or more (almost completely withered)) | 4 (Herbicidal ratio of 70% or more and less than 90%) | 2 (Herbicidal ratio of 20% or more and less than 40%) | 2 (Herbicidal ratio of 20% or more and less than 40%) | 2 (Herbicidal ratio of 20% or more and less than 40%) | 3 (Herbicidal ratio of 40% or more and less than 70%) | 5 (Herbicidal ratio of 90% or more (almost completely withered)) | 1 (Herbicidal ratio of 5% or more and less than 20%) | 0 (Herbicidal ratio of 5% or less (almost no effect)) | 3 (Herbicidal ratio of 40% or more and less than 70%) | 4 (Herbicidal ratio of 70% or more and less than 90%)
COc1cccc(-c2nnc3c(C(=O)Nc4nnc(C)o4)ccc(C(F)(F)F)n23)c1 [1-046] | 5 (Herbicidal ratio of 90% or more (almost completely withered)) | 5 (Herbicidal ratio of 90% or more (almost completely withered)) | 4 (Herbicidal ratio of 70% or more and less than 90%) | 1 (Herbicidal ratio of 5% or more and less than 20%) | 5 (Herbicidal ratio of 90% or more (almost completely withered)) | 1 (Herbicidal ratio of 5% or more and less than 20%) | 0 (Herbicidal ratio of 5% or less (almost no effect)) | 5 (Herbicidal ratio of 90% or more (almost completely withered)) | 5 (Herbicidal ratio of 90% or more (almost completely withered)) | 2 (Herbicidal ratio of 20% or more and less than 40%) | 0 (Herbicidal ratio of 5% or less (almost no effect)) |  | 4 (Herbicidal ratio of 70% or more and less than 90%) | 3 (Herbicidal ratio of 40% or more and less than 70%) | 5 (Herbicidal ratio of 90% or more (almost completely withered)) | 2 (Herbicidal ratio of 20% or more and less than 40%) | 1 (Herbicidal ratio of 5% or more and less than 20%) | 0 (Herbicidal ratio of 5% or less (almost no effect)) | 4 (Herbicidal ratio of 70% or more and less than 90%)
